Data reported in the NIST ThermoML archive (doi:10.1016/j.fluid.2008.01.004).

Legend:
[1] = wn = mass fraction of the nth substance listed; settings: 101 kPa, Liquid; for speed of sound: Sing-around technique in a fixed-path interferometer
[2] = mn = molality of the nth substance listed, in mol/kg; settings: 283.15 K; 101 kPa; Liquid; m2 = 0

CCCO [propan-1-ol] + O
[1]
Settings	mass density, 283.15 K [kg/m3]	mass density, 288.15 K [kg/m3]	mass density, 293.15 K [kg/m3]	mass density, 298.15 K [kg/m3]	mass density, 303.15 K [kg/m3]	speed of sound, 283.15 K [m/s]	speed of sound, 288.15 K [m/s]	speed of sound, 293.15 K [m/s]	speed of sound, 298.15 K [m/s]	speed of sound, 303.15 K [m/s]
w1 = 0.05	992.405	991.687	990.671	989.387	987.86	1499	1512.2	1523.9	1533.8	1542.2
w1 = 0.1	987.187	986.194	984.913	983.372	981.595	1548.6	1556.5	1563.3	1568.7	1572.9
w1 = 0.15	982.892	981.496	979.828	977.921	975.791	1585.2	1587.6	1589	1589.2	1588.6

O [water] + O=P([O-])([O-])[O-].[Na+].[Na+].[Na+]
Settings	mass density [kg/m3]
[2]	999.699
